The results in this text go back to ChEMBL document CHEMBL1909588, “Synthesis and in vitro antitubercular evaluation of novel sansanmycin derivatives” (2011).

Each structure is given as a SMILES string. Values after ≈ are worked out from the molar mass of the structure shown.

For the test, the system named is Mycobacterium tuberculosis. The test is described as follows: Antitubercular activity against rifampicin and isoniazid-resistant Mycobacterium tuberculosis isolate 2199 after 24 hrs by microplate alamar blue assay. As to conditions: isolate 2199, 24 h. The format is functional. (In general: Resazurin is reduced to fluorescent resorufin, in cell work by metabolically active cells.)

As for `CSCCC(NC(=O)NC(Cc1c[nH]c2ccccc12)C(=O)O)C(=O)NC(C(=O)N/C=C1\C[C@@H](O)[C@H](n2ccc(=O)[nH]c2=O)O1)C(C)N(C)C(=O)C(Cc1cccc(O)c1)NC(C)C` (some centres undefined), the MIC (as a rule, the least concentration at which growth counts as inhibited) amounted to 8 µg/mL (≈ 8.83 µM).

Take `NNC(=O)c1ccncc1` [ISONIAZID]: the MIC stood at 40 µg/mL (≈ 292 µM).

`CO[C@H]1/C=C/O[C@@]2(C)Oc3c(C)c(O)c4c(O)c(c(/C=N/N5CCN(C)CC5)c(O)c4c3C2=O)NC(=O)/C(C)=C\C=C\[C@H](C)[C@H](O)[C@@H](C)[C@@H](O)[C@@H](C)[C@H](OC(C)=O)[C@@H]1C` [RIFAMPIN] returned an MIC of 20 µg/mL (≈ 24.3 µM).

In the case of `CSCCC(NC(=O)NC(Cc1c[nH]c2ccccc12)C(=O)O)C(=O)NC(C(=O)N/C=C1\C[C@@H](O)[C@H](n2ccc(=O)[nH]c2=O)O1)C(C)N(C)C(=O)C(N)Cc1cccc(O)c1` (some centres undefined) [SANSANMYCIN A], the MIC was 32 µg/mL (≈ 37 µM).
